Measured values as given in patent US8785383B2, “Mast cell stabilizers in the treatment of obesity” (The Brigham and Women's Hospital, Inc., priority 2007, dated 2014).
“Also recorded” adds a separate entry of the source.

Columns and labels:
[1] = test system: mast cell-deficient Kit^W-sh/W-sh mice; experiment: DSCG treatment of mast cell-deficient Kit W-sh/W-sh mice on Western diet; type: in vivo, mouse
Description: (§1) Wild-type (C57BL/6), Il6^−/− (C57BL/6, N11), and Ifng^−/− (C57BL/6, N10) mice were purchased from the Jackson Laboratories (Bar Harbor, Me.). Congenic Tnf^−/− (C56BL/6, N10) and mast cell-deficient Kit^W-sh/W-sh (C57BL/6, N>10) mice were generated by back-crossing to the C57BL/6 background as described (Sun, et al. Nat. Med. 13:719-724 (2007); Wolters, et al., Clin Exp Allergy 35:82-88 (2005)). The standing committee of Harvard Medical School approved all animal research protocols, and all mice were housed in a pathogen-free facility. To induce obesity, we fed 6-week-old mice (females and males) a Western diet (Research Diet, New Brunswick, N.J.) for 12-20 weeks. Mouse body weight was monitored weekly. By the end of each course of Western diet consumption, we performed glucose tolerance and energy expenditure assays as reported previously (Yang, et al., Nat. Cell Biol. 9:970-977 (2007)). Mouse blood samples were collected for serum adipokine measurement. Subcutaneous, visceral, and brown fat and skeletal muscle were harvested individually for protein extraction and paraffin section preparation. Tissue protein extracts were used for ELISA, immunoblot analysis, and cysteinyl cathepsin active site labeling. […]

[2] = test system: Western diet-fed wild-type (C57BL/6) mice; experiment: Diet-induced obesity, Western diet with daily i.p. DSCG; type: in vivo, mouse
Description: as §1

[3] = test system: CD117-positive mast cells and CD31-positive areas in WAT and muscle; experiment: Immunohistology of WAT and muscle (CD117 mast cells, CD31 microvessels); type: in vivo, mouse; details: DSCG-treated vs untreated mice, same dietary conditions
Protocol: Human and mouse WAT and muscle tissues were fixed with 10% formalin overnight and embedded in paraffin, from which 5 μm sections were prepared. Anti-human mast cell tryptase (mouse monoclonal, 1:100, Dako, TRAPPES CEDEX, France), anti-mouse mast cell CD117 (rat monoclonal, 1:10, eBiosciences, Inc., San Diego, Calif.), and anti-mouse CD31 (rat monoclonal, 1:400, Pharmingen, San Diego, Calif.) immunostained for mast cells and microvessels on WAT, muscle, and liver sections. Researchers blinded to the origin of tissue counted human tryptase-positive and CD117-positive mast cells, and data are presented as cell numbers per mm^2. CD31-positive areas in WAT and muscle were determined using Image-Pro Plus software as described, and data were presented as percentage of CD31-positive areas (Wang, et al., J. Biol. Chem. 281:6020-6029 (2006); Wild, Microvasc Res. 59:368-376 (2000)). Hematoxylin and eosin staining assisted histologic assessment of the GI tract.

[4] = test system: UCP1, fibronectin, Glut4, insulin receptor; experiment: Immunoblot analysis of tissue protein extracts; type: in vivo, mouse
Description: Wild-type (C57BL/6), Il6^−/− (C57BL/6, N11), and Ifng^−/− (C57BL/6, N10) mice were purchased from the Jackson Laboratories (Bar Harbor, Me.). Congenic Tnf^−/− (C56BL/6, N10) and mast cell-deficient Kit^W-sh/W-sh (C57BL/6, N>10) mice were generated by back-crossing to the C57BL/6 background as described (Sun, et al. Nat. Med. 13:719-724 (2007); Wolters, et al., Clin Exp Allergy 35:82-88 (2005)). The standing committee of Harvard Medical School approved all animal research protocols, and all mice were housed in a pathogen-free facility. To induce obesity, we fed 6-week-old mice (females and males) a Western diet (Research Diet, New Brunswick, N.J.) for 12-20 weeks. Mouse body weight was monitored weekly. By the end of each course of Western diet consumption, we performed glucose tolerance and energy expenditure assays as reported previously (Yang, et al., Nat. Cell Biol. 9:970-977 (2007)). Mouse blood samples were collected for serum adipokine measurement. Subcutaneous, visceral, and brown fat and skeletal muscle were harvested individually for protein extraction and paraffin section preparation. Tissue protein extracts were used for ELISA, immunoblot analysis, and cysteinyl cathepsin active site labeling. For immunoblot analysis, 30 μg of proteins were separated on an 8% SDS-PAGE to detect 220 kDa fibronectin (mouse monoclonal, 1:100, NeoMarkers, Fremont, Calif.) and 200 kDa insulin receptor (mouse monoclonal, 1:100, Calbiochem, San Diego, Calif.) or a 12% SDS-PAGE to detect Glut4 (mouse monoclonal, 1:200, R&D Systems, Minneapolis, Minn.), UCP1 (rabbit polyclonal, 1:3000, Abcam, Cambridge, Mass.), actin (mouse monoclonal, 1:500, Abcam), and glyceraldehyde-3-phosphate dehydrogenase (GAPDH, rabbit polyclonal, 1:1000, Santa Cruz Biotechnolog, Santa Cruz, Calif.). For cathepsin active site labeling, 30 μg of proteins were incubated with 1 μl of 600 mM dithiothreitol and 1 μl of [^125I]-JPM in a pH5.5 buffer as previously described. After incubating the reaction mixture at 37° C. for 1 hour, labeled proteins were separated on a 12% SDS-PAGE. Gel was stained with Coomassie blue, destained, dried, and exposed to an x-ray film. The liver and GI tract were harvested for histologic analysis.

[5] = test system: IL6, TNF-α, IFN-γ, MCP-1, adiponectin, MMP-9, CatS, CatL, leptin in serum and/or WAT; experiment: ELISA of serum and WAT adipokines; type: in vivo, mouse
Description: Mouse body weight was monitored weekly. […] Mouse blood samples were collected for serum adipokine measurement.
Frozen mouse WAT was pulverized and lysed in a RIPA buffer (Pierce, Rockford, Ill.) containing a protease inhibitor cocktail (Calbiochem, San Diego, Calif.). Both WAT and serum samples were subjected to ELISA analysis for IL6 (BD Biosciences), TNF-α (PeproTech, Rocky Hill, N.J.), IFN-γ (PeproTech), MCP-1 (PeproTech), adiponectin (R&D Systems), MMP-9 (R&D Systems), CatS (R&D Systems), and CatL (Bender MedSystems Inc, Burlingame, Calif.) according to manufacturers' instructions.

[6] = test system: Western diet-fed wild-type (C57BL/6) mice; experiment: Energy expenditure assay; type: in vivo, mouse; details: DSCG-treated WT mice vs untreated WT mice
Description: as §1

[7] = test system: Western diet-fed wild-type (C57BL/6) mice; experiment: Glucose tolerance assay in Western diet-fed mice; type: in vivo, mouse; details: WT mice treated with DSCG
Description: as §1

[8] = test system: obese and diabetic WT mice; experiment: Treatment of established diet-induced obesity and diabetes (four treatment groups); type: in vivo, mouse
Description: To assess the direct participation of mast cells in obesity, we studied mast cell-deficient Kit^W-sh/W-sh mice in diet-induced obesity. While Kit^W-sh/W-sh mice lack mature mast cells due to an inversion mutation of the c-Kit promoter region (Duttlinger, et al., Proc. Nat'l Acad. Sci. USA 92:3754-3758 (1995)), numbers and activities of other leukocytes in blood are normal, permitting probing of mast cell functions in vivo. […] To extend our observations, we fed WT mice a Western diet for 12 weeks to produce obesity and diabetes, and grouped these obese and diabetic mice into four treatment groups: I, continued feeding with a Western diet; II, switched to a chow diet; III, continued feeding with a Western diet together with a daily i.p. injection of DSCG; IV, switched to a chow diet and treated with DSCG.

[9] = test system: liver, gastrointestinal tract, pancreas
Description: Wild-type (C57BL/6), Il6^−/− (C57BL/6, N11), and Ifng^−/− (C57BL/6, N10) mice were purchased from the Jackson Laboratories (Bar Harbor, Me.). Congenic Tnf^−/− (C56BL/6, N10) and mast cell-deficient Kit^W-sh/W-sh (C57BL/6, N>10) mice were generated by back-crossing to the C57BL/6 background as described (Sun, et al. Nat. Med. 13:719-724 (2007); Wolters, et al., Clin Exp Allergy 35:82-88 (2005)). The standing committee of Harvard Medical School approved all animal research protocols, and all mice were housed in a pathogen-free facility. To induce obesity, we fed 6-week-old mice (females and males) a Western diet (Research Diet, New Brunswick, N.J.) for 12-20 weeks. Mouse body weight was monitored weekly. […]
Human and mouse WAT and muscle tissues were fixed with 10% formalin overnight and embedded in paraffin, from which 5 μm sections were prepared. […] Researchers blinded to the origin of tissue counted human tryptase-positive and CD117-positive mast cells, and data are presented as cell numbers per mm^2. CD31-positive areas in WAT and muscle were determined using Image-Pro Plus software as described, and data were presented as percentage of CD31-positive areas (Wang, et al., J. Biol. Chem. 281:6020-6029 (2006); Wild, Microvasc Res. 59:368-376 (2000)). […]

O=C(O)c1cc(=O)c2c(OCC(O)COc3cccc4oc(C(=O)O)cc(=O)c34)cccc2o1 [DSCG, disodium cromoglycate]
glucose tolerance in Kit^W-sh/W-sh mice [1]: did not further change | body weight (gain) of Kit^W-sh/W-sh mice ([1]; Western diet): did not further affect the body weight; also recorded: did not further change | body weight gain ([2]; male WT mice, Western diet 12 weeks, daily i.p. injection, vs untreated WT): attenuated body weight gain | total subcutaneous and visceral fat ([2]; male mice, Western diet, vs untreated WT controls): significantly less total subcutaneous and visceral fat | mast cell numbers in WAT [3]: mast cell numbers similar to WAT from untreated mice | Glut4 in WAT and muscle ([4]; DSCG-treated mice): more | fibronectin in WAT and muscle ([4]; DSCG-treated mice): more | insulin receptor (IR) in WAT and muscle ([4]; DSCG-treated mice): more | brown fat UCP1 expression ([4]; brown fat, vs WT control mice): obviously higher brown fat UCP1 expression | serum leptin levels ([5]; male and female mice, Western diet, vs WT controls): significantly lower levels | CatS levels in serum (ELISA) ([5]; serum): reduced significantly | CatL level ([5]; serum and/or WAT, Western diet): did not change significantly | IFN-γ level ([5]; serum and/or WAT, Western diet): lower levels | IL6 level ([5]; serum and/or WAT, Western diet): lower levels | MCP-1 level ([5]; serum and/or WAT, Western diet): lower levels | TNF-α level ([5]; serum and/or WAT, Western diet): lower levels | adiponectin level ([5]; serum and/or WAT, Western diet): did not change significantly | cathepsin S (CatS) level ([5]; serum and/or WAT, Western diet): lower levels | matrix metalloprotease-9 (MMP-9) level ([5]; serum and/or WAT, Western diet): lower levels | O2 consumption and CO2 production [6]: significantly more O2 consumption and CO2 production | resting metabolic rate [6]: increased resting metabolic rate | glucose tolerance [7]: significantly improved glucose tolerance | body weight decrease ([8]; group III: obese mice, continued Western diet plus daily i.p. DSCG, eight weeks): 12% | glucose tolerance ([8]; group IV: chow diet plus DSCG, compared among four groups): highest glucose tolerance among the four groups | body weight at which mice stabilized ([8]; group IV: chow diet plus DSCG, eight weeks): 40˜41 grams | body weight decrease ([8]; group IV: obese mice switched to chow diet and treated with DSCG, eight weeks): 19% | mast cells or lipid-loaded adipocytes in livers ([9]; Western diet-fed WT mice treated with DSCG): did not detect mast cells or lipid-loaded adipocytes | food/water intake and toxic effect ([9]; mouse, in vivo): neither reduced food/water intake nor any toxic effect of DSCG
